Data set [1] concerns endogenous GRP78. The data set can be described thus: Immunoblot of endogenous GRP78 in MDA-MB-435 cells infected with 320 bp AS adenovirus, with or without etoposide. As to conditions: mock-infected, etoposide treatment by itself. The class given is cell-based, human. How it is done:
The same cells were infected with the GFP negative control adenovirus. […] Thus, both the full length and the 320 bp version of the AS construct targeted against GRP78 blocked expression of GRP78 in a 293T test system.
Western Blotting—The cell lysate was prepared in radioimmune precipitation assay buffer and subjected to immunoblot with antibodies against GRP78, GRP94, topoisomerase II, caspase-7, and α-actin as described. Nitrocellulose membranes containing the transferred proteins were blocked in Tris-buffered saline containing 5% non-fat dry milk and 0.1% Tween 20 for 1 h at room temperature and were probed with the respective primary antibodies. For GRP78, an anti-KDEL mouse monoclonal antibody (SPA-827), an anti-GRP78 rabbit polyclonal antibody directed against the carboxyl ten amino acids of rat GRP78 (SPA-826) (StressGen, Victoria, Canada), or an anti-hamster GRP78 rabbit polyclonal antibody at 1:3000, 1:2000, and 1:5000 dilution, respectively, was used. […]

In data set [2] the test system is caspase-7. The data set can be described thus: Caspase-7 activation in etoposide-treated CHO cells (Western blot). It counts as cell-based, Chinese hamster. As to conditions: 100 μM etoposide for 6 h, harvested after 24 h. How it is done:
FIG. 5, Panel A depicts the effect of GRP78 overexpression on topoisomerase II expression and caspase-7 activation. Total protein lysates were prepared from non-treated (Ctrl) or etoposide-treated (Etop) CHO and C.1 cells.
Among the executor caspases, caspase-7 has been reported to be associated with the ER. Upon induction of apoptosis, procaspase-7 (35 kDa) is first converted into a 32-kDa intermediate, which is further processed into active 20- and 11-kDa subunits. […] Upon longer exposure of the autoradiogram, the active 20- and 11-kDa forms were evident in the etoposide-treated cells. When GRP78 was overexpressed, a low level of caspase-7 activation was detected in both the non-treated and etoposide-treated cells. […] In addition, upon addition of cytochrome c, caspase-7 activation was higher in CHO cells than C.1 cells, as evidenced by the increase in the active 20- and 11-kDa forms in the CHO samples compared with the C.1 samples.
The cells were suspended in 5 volumes of a hypotonic buffer (5 mM Tris-HCl, pH 7.4, 5 mM KCl, 1.5 mM MgCl2, 0.1 mM EGTA, pH 8.0, and 1 mM dithiothreitol) in the presence of 2 μg/ml leupeptin, pepstatin, and aprotinin protease inhibitors. After incubation on ice for 20 min, sucrose was added to a final concentration of 250 mM, and the cells were disrupted by douncing eight times in a 1-ml Wheaton Dounce homogenizer. […]
Background: A western blot detects proteins with antibodies after separation by electrophoresis.

In data set [3] the test system is T24/83-GRP78 cells. The data set can be described thus: Clonogenic survival assays, T24/83 cells overexpressing GRP78. The class given is cell-based, human. Particulars: versus T24/83-pcDNA cells. How it is done:
(§1) Clonogenic Survival Assays—Four thousand cells were seeded into 10-cm-diameter dishes. […] After drug treatment, the cells were grown in fresh medium for 10 to 14 days. The colonies were washed with ice-cold PBS, fixed with methanol, and stained with 10% Giemsa staining solution. The surviving fraction was determined by dividing the number of the surviving colonies in the drug-treated cells by the number of colonies in the non-treated control groups.

In data set [4] the test system is GRP78 Overexpression cells. The data set can be described thus: % Survival (Colony Assay), GRP78 overexpression. It counts as cell-based. As to conditions: for % Survival (Colony Assay): GRP78 Overexpression. How it is done:
(§2) Experiments were also performed to determine the anti-apoptotic effect conferred by overexpression of GRP78. This task was completed.
as §1

Data set [5] relates to T24/83-pcDNA cells. The data set can be described thus: Annexin V staining and FACS analysis, T24/83-pcDNA cells. The class given is cell-based, human. As to conditions: versus non-treated. How it is done: (§3) Annexin V Staining and FACS Analysis—CHO, C.1, and T24/83 cells were trypsinized, washed twice with ice-cold PBS, pH 7.4, and resuspended in […] binding buffer (10 mM HEPES, pH 7.4, 140 mM NaCl, 2.5 mM CaCl2 at a concentration of 1×10^6 cells/ml. One hundred μl of cell suspension was transferred to 5-ml plastic tubes, and 5 μl of annexin V-fluorescein isothiocyanate (PharMingen) and 4 μl of 0.5 mg/ml PI were added. The cells were gently vortexed and incubated in the dark at room temperature for 20 min. Four hundred μl of binding buffer was added to each tube, and annexin V staining was analyzed by flow cytometry within 1 h. Cells negative for both PI and annexin V staining are live cells, annexin V positive staining cells are early apoptotic cells, and PI positive and annexin V positive staining cells are primarily cells in late stages of apoptosis.
(§4) A pair of stably transfected human transitional bladder carcinoma T24/83 cell lines selected and cultured under identical conditions, were used to determine the effect of GRP overexpression on neoplastic cells. The cell line, referred to as T24/83-GRP78, overexpressed human GRP78, and the other line, referred to as T24/83-pcDNA, was stably transfected with the empty expression vector pcDNA (28).
In general terms: Flow cytometry measures light scatter and fluorescence of single cells or particles in a stream.

Data set [6] relates to CHO cells. The data set can be described thus: DNA fragmentation assay, CHO cells. It counts as cell-based, Chinese hamster. Particulars: etoposide-treated CHO cells, compared with C.1 cells; 100 μM for 12 h, harvested after 48 h. How it is done:
The DNA fragmentation assays were performed using an apoptosis DNA ladder kit (Roche Molecular Biochemicals) according to manufacturer's instructions.
(§5) The apoptotic cells were identified by annexin V labeling.

For data set [7], the system named is C.1 cells (CHO derivative overexpressing GRP78). The data set can be described thus: Annexin V staining and FACS analysis, C.1 cells. The class given is cell-based, Chinese hamster. Particulars: 30 μM etoposide for 6 h.
Description: (§6) FIG. 3, Panel A depicts GRP78 overexpression protecting cells from etoposide-induced apoptosis. […] Viable cells are those with low annexin or no annexin and PI staining (lower left panel). Early stage apoptotic cells are represented by high annexin and low PI staining (lower right panel), later stage apoptotic cells represented by high annexin and high PI staining (upper right panel), and necrosis is represented by cells with high PI and low annexin staining (upper left panel).
as §3, §5

Data set [8] deals with Control cells. The data set can be described thus: % Survival (Colony Assay), control cells. The class given is cell-based. How it is done:
as §2, §1

Data set [9] has as its system CHO cells. The data set can be described thus: Annexin V staining and FACS analysis, CHO cells. It counts as cell-based, Chinese hamster. Particulars: 30 μM etoposide for 6 h.
Description: as §6, §3, §5

For data set [10], the system named is T24/83-GRP78 cells. The data set can be described thus: Annexin V staining and FACS analysis, T24/83-GRP78 cells. The class given is cell-based, human. As to conditions: versus non-treated. How it is done: as §3, §4
Data set [11] concerns MDA-MB-435 cells. The data set can be described thus: Etoposide-mediated cell death after siRNA in breast cancer cells. It counts as cell-based, human. From the text:
(§7) This translates to more death in the cells treated with Grp78(II) siRNA than control siRNA targeted against the unrelated green fluorescence protein (FIG. 16).

Data set [12] deals with GRP78. The data set can be described thus: Suppression of GRP78 level by siRNA in MDA-MB-435 cells (Western blot). The class given is cell-based, human.
Description: (§8) The concentrations of siRNA Grp78 II used were indicated on top.
as §7

Data set [13] has as its system GRP78. The data set can be described thus: Specificity of Grp78 siRNA in 293T cells (Western blot of GRP78, GRP94, HSP70). The class given is cell-based, human. As to conditions: β-actin loading control.
Description: as §8
When blasted against the human genomic sequence, this sequence is unique and in principle, should not affect any other human gene. […] The level of β-actin was used as loading control.

Take `COc1cc([C@@H]2c3cc4c(cc3[C@@H](O[C@@H]3O[C@@H]5CO[C@@H](C)O[C@H]5[C@H](O)[C@H]3O)[C@H]3COC(=O)[C@H]23)OCO4)cc(OC)c1O` [Etoposide]: the “reduction of the amount of endogenous GRP78” value in data set [1] is “about 40%”. For the same compound, in data set [2], the caspase-7 activation result is “activation of caspase-7”. Further, the “resistance of T24/83 cells overexpressing GRP78 (clonogenic survival)” value in data set [3] was “more resistance”. The “% Survival (Colony Assay)” value stood at 93% in data set [4] (etoposide 0.2 μM); 93% in data set [4] (etoposide 0.4 μM); 77% in data set [4] (etoposide 0.8 μM); 63% in data set [4] (etoposide 1.6 μM); 71% in data set [8] (etoposide 0.2 μM); 67% in data set [8] (etoposide 0.4 μM). Also, the entries for the “% Survival (Colony Assay)” value in data set [8] (etoposide 0.8 μM) and in [8] (etoposide 1.6 μM) were 26% and 1.5%, respectively. The “effect of GRP78 overexpression on sensitivity to the drug” value in data set [4] (GRP78 overexpression versus control) is given as “confers resistance”. Moreover, the entries for the “increase of the percentage of annexin V-labeled cells by etoposide treatment” value in data set [5] and in [10] were 2.7 fold and 1.4 fold, respectively. The DNA fragmentation entry in data set [6] is on record as “More extensive DNA fragmentation”. Besides, the results for the “percentage of apoptotic cells (annexin V labeling) upon etoposide treatment” value in data set [7] (non-treated 15%) and in data set [9] (non-treated 9%) were 70% and 90%, respectively. The figures for the “increase of the percentage of apoptotic cells upon etoposide treatment” value in data set [7] (versus non-treated) and in data set [9] (versus non-treated) were 4.7 fold and 10 fold, respectively.

Turning to “Grp78(II) siRNA: siRNA duplex 5′ AAGGTTACCCATGCAGTTGTT 3′ (SEQ ID NO:4) and complement (SEQ ID NO:17) targeting GRP78 (antisense AACAACTGCATGGGTAACCTT; listed as DNA, chemistry not given here; listed as Homo sapiens)”, the “cell death versus control siRNA against green fluorescence protein” value in [11] is reported as “more death”. Besides, the “siRNA concentration that significantly suppresses GRP78 level” value in [12] is not below 80 nM. Also, the “effect on GRP78, GRP94 and HSP70 levels” value in data set [13] was “only GRP78 level is suppressed”.
